Test results from patent publication US11504434B2, “Compositions and methods for targeted delivery of therapeutic and/or diagnostic agents” (THE PENN STATE RESEARCH FOUNDATION, priority 2016, dated 2022).

How the values were obtained:
[1] = system: 1205Lu cells; test: CCK-8 cell viability, 1205Lu; type: cell-based, human
Description: (§1) Pharmacological Studies. First, free PLX4032 toxicity and selectivity were confirmed by adding PLX4032 solutions at different concentrations into 96 well plates with THP-1, 1205Lu and WM35 cells separately (cell seeding density=5,000 cells/well). After 24 hrs incubation, the cells were washed with PBS twice and supplemented with 10 μl CCK-8 in 100 μl RPM-1640 medium in each well. After 2 hrs incubation, the absorbance at 450 nm of each well was measured by a micro-plate reader (TECAN infinite M200 PRO) and converted to the cell viability by normalized to control (tissue culture plates). Next, MTP-BPLP-PLA nanoparticles with and without PLX4032 loaded were dispersed in RPMI-1640 medium in various concentrations, followed by incubation with THP-1, 1205lu and WM35 cells (2,000 cells/well) separately in same conditions for 7 days. At last, MTP-BPLP-PLA-PLX4032 loaded THP-1 cells and pristine THP-1 cells were seeded with 1205lu or WM35 cells (2,000 cells/well) together with different ratios for 7 days, respectively. The cell viabilities were tested by CCK-8 assays as well.

[2] = system: THP-1 cells; test: CCK-8 cell viability, THP-1; type: cell-based; conditions: free drug, up to 100 μg/ml, 24 hrs
Description: as §1

[3] = system: WM35 cells; test: CCK-8 cell viability, WM35; type: cell-based, human
Description: as §1

[4] = PLX4032 concentration higher than 5 μg/ml, 24 hrs

## CCCS(=O)(=O)Nc1ccc(F)c(C(=O)c2c[nH]c3ncc(-c4ccc(Cl)cc4)cc23)c1F [PLX4032]
[1]; 50 ng/ml, 24 hrs incubation
  free PLX4032 toxicity to 1205Lu: selectively killed
[1]; [4]
  kill of melanomas (1205Lu): ~100%
[2]
  THP-1 cell viability reduction: no significant viability reduction
[3]; 50 ng/ml, 24 hrs incubation
  free PLX4032 toxicity to WM35: selectively killed
[3]; [4]
  kill of melanomas (WM35): ~100%
